Entries after “also recorded” stand apart in the source; their conditions may differ.
Legend:
MIAPaCa-2 cells = assay: Transwell (Boyden chamber) migration assay, MIAPaCa-2; format: cell-based, human; settings: MIAPaCa-2, Boyden chamber, increasing doses, 4 h
Description: MIAPaCa-2 cells were platted on transwells and exposed to increasing doses of Pimozide for 4 h (FIG. 7A). Migrated cells were measured and normalized to their controls. Values are the mean+/−SD of four replicate.
This assay for confirmation of cell migration was performed using 96-well Costar Transwell chambers with 8.0 μm pore polycarbonate membranes (Corning Inc., Corning, N.Y.). Cell culture inserts transwells were placed in wells of 96 well plate. The bottom chambers were filled with 120 μl of cell culture medium containing 10% FBS. Cells suspended in 70 μl serum free medium with DMSO as negative control or drugs were added to the upper part of each chamber followed by incubation at 37° C. with 5% CO2. After 4 h the medium was aspirated from the top of chambers and the bottom side of chambers washed with PBS. Those that have penetrated to the bottom side of the membrane were detached with 0.25% tryspin/EDTA during 3 min (37° C.) followed by inactivation of trypsine with soybean (Sigma Aldrich). […] Six replicates were performed for each treatment condition to predict the responder outcome variable and the luminescence signal which is corresponding to the number of live suspended cells was measured. Graph was plotted according to the readings obtained. […]

[1] = tested on: PANC-1, MIAPaCa-2 and AsPC-1 cell lines; assay: PDAC cell line growth curves under combination therapy; format: cell-based, human; settings: over time
Text: FIGS. 11A and 11B show PDAC cell line growth curves following combination therapy with DRD2 antagonists, 2-deoxy-D-glucose, and atorvastatin. Percentage cell growth shown on the y-axis following treatment with control (blue line), pimozide (Pim, gray line), atorvastatin and 2-deoxy-D-glucose (ATR+2-DG, red line) and combination of Pim and ATR+2-DG (green line) over time in PANC-1 (top), MIAPaCa-2 (middle) and AsPC-1 (bottom) cell lines (FIG. 11A). Haloperidol (Hal, gray line) is used as the DRD2 antagonist for use alone or in combination with ATR+2-DG as described in A (FIG. 11B). Dosage are indicated for each cell line.
PDAC cell proliferation was measured during pharmacological inhibition of DRD2 alone and in combination with blockade of glycolysis and cholesterol synthesis. To suppress glycolysis, 2-DG, a glucose analog which is a competitor inhibitor of glucose metabolism, was used. To inhibit cholesterol synthesis, atorvastatin (ATR), a competitive inhibitor of 3-hydroxy-3-methylglutaryl-coenzyme A (HMG-CoA) reductase in the cholesterol biosynthesis pathway was used.

[2] = tested on: MIAPaCa-2, PANC-1 and AsPC-1 cells; assay: Free cholesterol measurement (Filipin staining) in PDAC cell lines; format: cell-based, human; settings: 10 μM, 18 hours; vs DMSO
Text: Measurement of 2-deoxy-D-glucose uptake shown on the y-axis relative to control by PDAC cell lines (MIAPaCa2, left; PANC-1, middle; AsPC1, right) treated with DMSO (C), pimozide (P) or haloperidol (H) (FIG. 10A). Abundance of free cholesterol, as measured by staining with filipin, after treatment with haloperidol (H) or pimozide (P) in PDAC cell lines (MIAPaCa2, left; PANC-1, middle; AsPC1, right) (FIG. 10B top). Representative micrographs of filipin-labelled cholesterol. PDAC (MIAPaCa2, top; PANC-1, middle; AsPC1, bottom) cells were seeded for 24 hours and treated with 10 μM haloperidol (H) or pimozide (P) or DMSO for 18 hours (FIG. 10B bottom). Red-fluorescence represents propidium iodide (PI)-stained nuclei and blue-fluorescence represents filipin-stained cholesterol. mRNA levels of genes relative to R-actin shown on the y-axis involved in cholesterol biosynthesis (from left to right: SREBP1, SREBP2, INSIG1, HMGCR, LDLR) measured by qRT-PCR 18 hours post-treatment with DMSO (C), haloperidol (H) or pimozide (P) in three PDAC cell lines (MIAPaCa2, top; PANC-1, middle; AsPC1, bottom) (FIG. 10C).
Cancer cells were seeded for 24 hours and treated with pimozide, haloperidol or DMSO for 18 hours. The cells were fixed with paraformaldehyde, stained with Filipin™ and propidium iodide (PI), and photographed. Filipin™ is a fluorescent polyene antibiotic that binds to free cholesterol. […]

[3] = tested on: KPC-023, KPC-01 and KPC-LM pancreatic cancer cell lines; assay: Viability of primary and metastatic pancreatic cancer cell lines isolated from KPC mice; format: cell-based; settings: primary (KPC-023, KPC-01) and metastatic (KPC-LM) lines
[4] = tested on: pancreatic cancer cell lines (PANC-1, CFPAC-1, CAPAN-1, MIAPaCa-2, BXPC-3); assay: Sulforhodamine B (SRB) cytotoxicity assay on pancreatic cancer cell lines; format: cell-based, human; settings: increasing concentration, 72 h
Description: PANC-1, CFPAC-1, CAPAN-1, MIAPaCa-2, BXPC-3 and fibroblast cells were seeded for 24 h and were exposed to increasing concentration of Pimozide and vehicle for 72 h (FIG. 3A). The same procedure was followed for treatment of cancer cell lines with L741 (FIG. 3B). Cell viability was characterized using a SRB assay. Values are the mean+/−SD of six independent experiments.
Five pancreatic ductal cancer cell lines with various degree of differentiation were obtained from American Type Culture Collection (Rockville, USA) and Normal Human Dermal Fibroblasts (NHDF) obtained from PromoCell. BXPC-3 (moderately differentiated) as well as poorly differentiated human pancreatic cancer cell lines, PANC-1 and MIAPaCa-2, have been established from primary tumor. AsPC-1, CAPAN-1 and CFPAC-1 which represent well differentiated cell lines was isolated from ascites and liver metastasis of pancreas adenocarcinoma. All cell lines contain mutation in P53 whereas K-ras mutation reported in all with the exception of BxPc3. BRCA2 mutation just reported in CAPAN-1 cells.
Sulforhodamine B sodium salt (sigma) was used to assess cell viability and IC50 determination of pancreatic cancer cells. […] Cell viability was specified by using plate reader (TECAN) with measuring of absorbance at 570 and 650 nm (background) in treated or untreated 96 well plate.

`O=c1[nH]c2ccccc2n1C1CCN(CCCC(c2ccc(F)cc2)c2ccc(F)cc2)CC1` [pimozide] was tested, and the migrated cells (MIAPaCa-2 cells) was “significantly reduced migrated cells; also recorded: dose dependent inhibitory effect”, the cell growth [1] was “reduced cell growth” and the “abundance of free cholesterol (Filipin staining)” value [2] was “increased the abundance of free cholesterol; also recorded: enhanced glucose and cholesterol uptake”. For the same compound, the “viability of KPC mouse pancreatic cancer cell lines” value [3] was “sensitive; also recorded: Dose-dependent effects” and the “cell viability of pancreatic cancer cell lines” value [4] was “Potent toxicity effect; also recorded: dose dependent toxicity effect”.

From patent publication US10874685B2, “Pancreatic cancer therapy and diagnosis” (Deutsches Krebsforschungszentrum Stiftung des Öffentlichen …, priority 2014, dated 2020)
